The experiment concerns the target T1, glutathione peroxidase (GPx) (Bos taurus, UniProt P00435).
T1 construct: gene GPX1; selenoprotein; EDC-coupled to magnetic nanoparticles for the assay
T1 sequence (P00435 1-205): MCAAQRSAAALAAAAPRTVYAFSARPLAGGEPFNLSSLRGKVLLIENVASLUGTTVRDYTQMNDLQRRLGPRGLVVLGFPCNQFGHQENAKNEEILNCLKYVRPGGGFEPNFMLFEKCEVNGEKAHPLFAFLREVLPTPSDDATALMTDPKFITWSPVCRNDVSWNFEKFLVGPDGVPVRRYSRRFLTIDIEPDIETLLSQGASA
Kind of experiment: stopped-flow microfluidic fluorimetry of competing homovanillic acid dimerization, Lineweaver-Burk. Conditions: GPx immobilized on magnetic nanoparticles; GSH, H2O2, HVA; Tris-HCl 50 mmol/L pH 9, 30 °C; stated non-competitive; listed as at 1 µmol/L inhibitor; printed unit is not a concentration. The format is biochemical. From the text: stopped-flow microfluidic fluorimetry of competing homovanillic acid dimerization, Lineweaver-Burk on glutathione peroxidase (GPx)

Each structure is given as a SMILES string.

Regarding `CC(C)(C)OO` [t-butyl hydroperoxide], the “KI” value was 117.09 µmol/L/s.

The record behind these values is PMC10079702, “Study of the inhibition effects on glutathione peroxidase immobilized on MNPs using a stopped-flow microfluidic system” (Analytical and Bioanalytical Chemistry, 2023).
